In paper PMC11061149, “Protein mimetic 2D FAST rescues alpha synuclein aggregation mediated early and post disease Parkinson’s phenotypes” (Nature Communications, 2024):
Where “and” joins values, the source holds several entries; their conditions need not be identical. Equal entries are not always repeated.

Tests used:
[1] = system: UA196 worms (human αS and GFP in DA neurons); experiment: Confocal counting of healthy DA neurons in UA196 worms, early treatment (day two and four); assay type: in vivo, C. elegans; parameters: key to Total neurons, Average: healthy DA neurons per replicate of 10 worms, max 60
Source text: The aggregation of αS is associated with the neurodegeneration of DA neurons, which is a pathological hallmark of PD. Next, we investigated the neuroprotective effect of NS163 on the intraneuronal αS aggregation-mediated degeneration of DA neurons in a well-established C. elegans PD model (UA196)[20],[72]–[75]. The UA196 worms express both human αS and GFP in DA neurons under the control of the dopamine promoter genotype (Pdat-1::GFP; Pdat-1::α-SYN). The expression and aggregation of αS in six DA neurons that are located within the anterior region of worms lead to progressive neurodegeneration characteristics during the aging of UA196 worms. This strain has been used to gain insights into the PD-associated mechanisms and to assess the neuroprotective effect of ligands against the intraneuronal αS aggregation[20],[72]–[75]. During the aging of worms, αS protein aggregates and degenerates the DA neurons as represented by the gradual loss of cell bodies as observed from day 3 (Fig. 7b, c, filled red arrow) to day 5 (Fig. 7d, e, empty red arrow), to day 15 (Fig. 7f, g, empty red arrow). Additionally, there was fragmentation and blebbing of neurites from day 3 (Fig. 7b, c, filled yellow arrow) to day 5 (Fig. 7d, e, empty yellow arrow), which has been observed by others as well[72]–[75]. The maximum number of healthy DA neurons in one UA196 worm is six on day 3 (no degeneration) and we used 10 worms/biological replicate, which makes a total of 60 healthy DA neurons/biological replicate. Therefore, for each study, the maximum number of healthy DA neurons in UA196 worms is 60 as an average for each biological replicate. […] None of the UA196 worms had all six healthy DA neurons on day 5 (Fig. 7k, -NS163) and there was a gradual decline in the total number of healthy DA neurons in UA196 worms (Supplementary Fig. 26a). […] The average number of intact DA neurons in UA196 worms treated with NS163 was 59.5, 58.7, and 57.3 on day five, 10, and 15, respectively (Fig. 7j, red line). Additionally, the total number of treated worms with all six intact DA neurons were 57, 52, and 47 on day 5, 10, and 15, respectively (Fig. 7k, Supplementary Fig. 26b).
In UA196 strain, human αS and GFP are expressed in DA neurons under control of a dopamine transporter-specific promoter [Pdat-1::α-syn+Pdat-1::GFP], which results in age-dependent neurodegeneration of six DA neurons.
This experiment was performed based on previously described protocols with slight modifications[24],[65],[88]. Briefly, the worm strains (NL5901 or UA196) were bleached at the same time and the eggs were incubated on PLATE 1. On day two, the worms were divided into two batches. One half of the worms were transferred (using M9 buffer) on PLATE 2 (without ligand) and the second half of the worms were transferred to PLATE 3 (with ligand). The concentration of the ligands varied from 10–50 µM as described in the main manuscript. The worms were incubated on PLATE 2 or PLATE 3 up to day 3 at 20 °C in an incubator with constant humidity. On day four, the ligand (10–50 µM, stock conc. = 10 mM in DMSO, DMSO from 0.1–0.5%, v/v) was added again to PLATE 3. For confocal imaging, at least 10 worms per condition (from PLATE 2 or PLATE 3) were transferred to a cover slide containing an anesthetic (40 mM sodium azide), and mounted on glass microscope slide containing 2% agarose pads using a reported protocol. The images of the worms were collected using an Olympus Fluoview FV3000 confocal/2-photon microscope (40 x Plan-Apo/1.3 NA objective with DIC capability) and processed using the OlympusViewer in ImageJ software. For NL5901 worms, the inclusions of the aggregated αS (GFP puncta in the muscle cells) were manually counted (10 worms per condition) for the five-day imaging period (day 5 to day 9) for PLATE 2 or PLATE 3. […]

[2] = Parallel artificial membrane permeability assay (PAMPA); assay type: in vitro ADME
Method: The permeability of various ligands was assessed with a PAMPA kit (BioAssay Systems, Hayward, CA) according to a previously described protocol. Briefly, 4% lecithin solution (LS) was prepared in dodecane and 5 µL was applied to the donor plate membrane. Then, 300 μL PBS was added to the acceptor plate. Subsequently, 200 µL of ligand solutions (500 μM) and various permeability standards (high, medium, and low, 500 μM) were added to the donor plate membrane. The donor plate was placed in the acceptor plate and incubated at r.t. for 18 h. The solutions were then moved from the acceptor plate into a clear-bottom 96-well plate (Corning Inc., Corning, NY) and absorbance was recorded at 360 nm for various ligands and 275 nm for permeability standards. The permeability was calculated using Eq. (1) below, where the permeability rate, C, equals 7.72 × 10^–6, ODA is the absorbance of the acceptor solution, and ODE is the absorbance of the equilibrium standard.1 Pe=C×−ln1−ODA/ODEcm/s

[3] = UA196+NS132, Day 3, 10 per trial
[4] = UA196+NS132, Day 5, 10 per trial
[5] = UA196+NS132, Day 10, 10 per trial
[6] = UA196+NS132, Day 15, 10 per trial

With `Cc1ccc(NC(=O)c2ccc(NC(=O)c3ccc([N+](=O)[O-])c(NCCc4c[nH]c5ccccc45)n3)c(NCC3CCCCC3)n2)c(OCC(=O)O)n1` [NS132] the “number of intact DA neurons in UA196 worms (max. 60)” value ([1]; 50 µM ligand on day two and four, day 15 (untreated 13.5)) was 51, the “Total neurons, Average” value ([1]; UA196+NS132, Day 3) was 59.5 and the “Number of worms with 1 neurons” value [1, 3] was 0. The “Number of worms with 2 neurons” value [1, 3] was 0, the “Number of worms with 6 neurons” value [1, 3] was 9 and 10 and the “number of worms with 3 neurons” value [1, 3] was 0. For the same compound, the “number of worms with 4 neurons” value [1, 3] was 0, the “Total neurons, Average” value ([1]; UA196+NS132, Day 5) was 55.8333 and the “Number of worms with 1 neurons” value [1, 4] was 0. The “Number of worms with 2 neurons” value [1, 4] was 0, the “Number of worms with 5 neurons” value [1, 4] was 2 and 3 and 4 and the “Number of worms with 6 neurons” value [1, 4] was 7 and 8 and 6 and 5. The “number of worms with 3 neurons” value [1, 4] was 0, the “Total neurons, Average” value ([1]; UA196+NS132, Day 10) was 53.1667 and the “Number of worms with 1 neurons” value [1, 5] was 0. The “Number of worms with 2 neurons” value [1, 5] was 0, the “Number of worms with 6 neurons” value [1, 5] was 6 and 4 and 5 and the “number of worms with 3 neurons” value [1, 5] was 0. For the same compound, the “Total neurons, Average” value ([1]; UA196+NS132, Day 15) was 51, the “Number of worms with 1 neurons” value [1, 6] was 0 and the “Number of worms with 2 neurons” value [1, 6] was 0. The “Number of worms with 5 neurons” value [1, 6] was 5 and 4 and 3, the “Number of worms with 6 neurons” value [1, 6] was 3 and 4 and 5 and the “Total neurons, UA196 worms+Ligands” value ([1]; UA196 worms+Ligands, one value per trial, day not given for ligand (controls: Day 3, Day 15)) was 53 and 48 and 50 and 54 and 49 and 52. For the same compound, the “cell permeability (PAMPA), comparison in words” value [2] was “lower in comparison to the PAMPA medium standard”, the “PAMPA permeability (Pe), individual trials” value ([2]; 500 μM in donor, 18 h, r.t., unit from Eq. 1) was 26.9 nm/s and 24.1 nm/s and 27.1 nm/s and 28.9 nm/s and the Papp at 18 h, 500 μM ([2]; PAMPA, 500 μM in donor, 18 h, r.t., unit from Eq. 1, read-out: PAMPA permeability (Pe), individual trials) was 29.2 nm/s.
